Data from ChEMBL document CHEMBL5137079, “Structure-Based Design of Xanthine-Benzimidazole Derivatives as Novel and Potent Tryptophan Hydroxylase Inhibitors” (J Med Chem, 2022).
≈ marks a conversion by molar mass, not a printed value.

Key:
[1] = Solubility of the compound in simulated intestinal fluid at upto 200 uM by HPLC-UV analysis; assay type: physicochemical
[2] = Solubility of the compound in PBS at pH 7.4 at upto 200 uM by HPLC-UV analysis; assay type: physicochemical
[3] = Solubility of the compound in simulated gastric fluid at upto 200 uM by HPLC-UV analysis; assay type: physicochemical
[4] = Metabolic stability in human hepatocytes assessed as half life; assay type: ADME, cell-based, Hepatocyte
[5] = Metabolic stability in rat hepatocytes assessed as half life; assay type: ADME, cell-based, Hepatocyte
[6] = Metabolic stability in rat hepatocytes assessed as intrinsic clearance; assay type: ADME, cell-based, Hepatocyte; conditions: read-out: CLH
[7] = Metabolic stability in human hepatocytes assessed as intrinsic clearance; assay type: ADME, cell-based, Hepatocyte; conditions: read-out: CLH
[8] = AUCinfinity in ICR mouse plasma at 50 mg/kg, po administered as single dose measured for 1440 mins by LC-MS/MS analysis; assay type: ADME, organism-based; set-up: time 1440 min, dose 50 mg/kg, route po
[9] = AUCinfinity in ICR mouse brain at 50 mg/kg, po administered as single dose measured for 1440 mins by LC-MS/MS analysis; assay type: ADME, organism-based; set-up: time 1440 min, dose 50 mg/kg, route po

SMILES: CCn1c(=O)[nH]c(=O)c2c1nc(Cc1nc3ccccc3[nH]1)n2Cc1ccccc1
- solubility [1]: 158 µM (≈ 63.2 µg/mL)
- solubility [2]: 181 µM (≈ 72.6 µg/mL)
- solubility [3]: 162 µM (≈ 64.8 µg/mL)
- half-life [4]: 0.2 h
- half-life [5]: 1 h

SMILES: O=c1[nH]c(=O)n(C2CC2)c2nc(Cc3nc4ccccc4[nH]3)n(Cc3ccccc3)c12
- solubility [1]: 168 µM (≈ 69.2 µg/mL)
- solubility [2]: 167 µM (≈ 69 µg/mL)
- solubility [3]: 180 µM (≈ 74.1 µg/mL)
- half-life [4]: 0.1 h
- half-life [5]: 0.583 h

SMILES: O=c1[nH]c(=O)n(C2CC2)c2nc(Cc3nc4ccc(O)cc4[nH]3)n(Cc3ccccc3)c12
- solubility [1]: 185 µM (≈ 79.1 µg/mL)
- solubility [2]: 171 µM (≈ 73.4 µg/mL)
- solubility [3]: 165 µM (≈ 70.6 µg/mL)
- CLint scaled [6]: < 115 mL/min/kg
- half-life [4]: > 1 h
- half-life [5]: > 1 h
- CLint scaled [7]: < 115 mL/min/kg

SMILES: CCCn1c(=O)[nH]c(=O)c2c1nc(Sc1nc3ccccc3[nH]1)n2Cc1ccccc1
- solubility [1]: 150 µM (≈ 65 µg/mL)
- solubility [2]: 11.8 µM (≈ 5.1 µg/mL)
- solubility [3]: 173 µM (≈ 74.8 µg/mL)
- half-life [4]: 0.0667 h
- half-life [5]: 0.0833 h

SMILES: O=c1[nH]c(=O)n(C2CC2)c2nc(Cc3nc4ccc(F)cc4[nH]3)n(Cc3ccccc3)c12
- solubility [1]: 154 µM (≈ 66.4 µg/mL)
- solubility [2]: > 200 µM
- solubility [3]: 198 µM (≈ 85.4 µg/mL)
- CLint scaled [6]: < 115 mL/min/kg
- half-life [4]: 0.533 h
- half-life [5]: > 1 h

SMILES: COC(=O)c1ccc2nc(Cc3nc4c(c(=O)[nH]c(=O)n4C4CC4)n3Cc3ccccc3)[nH]c2c1
- solubility [1]: 195 µM (≈ 91.8 µg/mL)
- solubility [2]: 197 µM (≈ 92.8 µg/mL)
- solubility [3]: 198 µM (≈ 93.2 µg/mL)
- CLint scaled [6]: < 115 mL/min/kg
- half-life [4]: > 1 h
- half-life [5]: > 1 h
- CLint scaled [7]: < 115 mL/min/kg

SMILES: N#Cc1ccc2nc(Cc3nc4c(c(=O)[nH]c(=O)n4C4CC4)n3Cc3ccccc3)[nH]c2c1
- solubility [1]: 196 µM (≈ 85.6 µg/mL)
- solubility [2]: 154 µM (≈ 67.2 µg/mL)
- solubility [3]: 196 µM (≈ 85.8 µg/mL)
- CLint scaled [6]: < 115 mL/min/kg
- half-life [4]: > 1 h
- half-life [5]: > 1 h
- CLint scaled [7]: < 115 mL/min/kg

SMILES: CCn1c(=O)[nH]c(=O)c2c1nc(Cc1nc3cc4c(cc3[nH]1)OCO4)n2Cc1ccccc1
- solubility [1]: 166 µM (≈ 73.8 µg/mL)
- solubility [2]: 186 µM (≈ 82.8 µg/mL)
- solubility [3]: 191 µM (≈ 84.8 µg/mL)
- half-life [4]: > 1 h
- half-life [5]: 1 h
- CLint scaled [7]: < 115 mL/min/kg
- AUC(0-inf) [8]: 7450 ng·h/mL
- AUC(0-inf) [9]: 195 ng·h/mL

SMILES: CCn1c(=O)[nH]c(=O)c2c1nc(Sc1nc3ccccc3[nH]1)n2Cc1ccccc1
- solubility [1]: 176 µM (≈ 73.5 µg/mL)
- solubility [2]: 5.3 µM (≈ 2.22 µg/mL)
- solubility [3]: 195 µM (≈ 81.5 µg/mL)
- half-life [4]: 0.0833 h
- half-life [5]: 0.167 h

SMILES: Cn1c(=O)[nH]c(=O)c2c1nc(Sc1nc3cc(NC(=O)CC[C@H](N)C(=O)O)ccc3[nH]1)n2Cc1ccccc1
- solubility [1]: 116 µM (≈ 63.4 µg/mL)
- solubility [2]: 172 µM (≈ 94.2 µg/mL)
- solubility [3]: > 200 µM
- CLint scaled [6]: < 115 mL/min/kg
- half-life [4]: > 1 h
- half-life [5]: > 1 h
- CLint scaled [7]: < 115 mL/min/kg

SMILES: CCCn1c(=O)[nH]c(=O)c2c1nc(Cc1nc3cc(O)ccc3[nH]1)n2Cc1ccccc1
- solubility [1]: 159 µM (≈ 68.5 µg/mL)
- solubility [2]: > 200 µM
- solubility [3]: 189 µM (≈ 81.3 µg/mL)
- CLint scaled [6]: < 115 mL/min/kg
- half-life [4]: > 1 h
- half-life [5]: > 1 h
- CLint scaled [7]: < 115 mL/min/kg

SMILES: O=c1[nH]c(=O)n(C2CC2)c2nc(Cc3nc4ccc(OCCO)cc4[nH]3)n(Cc3ccccc3)c12
- solubility [1]: 189 µM (≈ 89.2 µg/mL)
- solubility [2]: 186 µM (≈ 87.7 µg/mL)
- solubility [3]: 186 µM (≈ 87.9 µg/mL)
- CLint scaled [6]: < 115 mL/min/kg
- half-life [4]: > 1 h
- half-life [5]: > 1 h
- CLint scaled [7]: < 115 mL/min/kg

SMILES: O=c1[nH]c(=O)n(C2CC2)c2nc(Cc3nc4cc5c(cc4[nH]3)OCO5)n(Cc3ccccc3)c12
- solubility [1]: 191 µM (≈ 87.3 µg/mL)
- solubility [2]: 22.9 µM (≈ 10.5 µg/mL)
- solubility [3]: 193 µM (≈ 87.9 µg/mL)
- CLint scaled [6]: < 115 mL/min/kg
- half-life [4]: > 1 h
- half-life [5]: > 1 h
- CLint scaled [7]: < 115 mL/min/kg

SMILES: COc1ccc2nc(Cc3nc4c(c(=O)[nH]c(=O)n4C4CC4)n3Cc3ccccc3)[nH]c2c1
- solubility [1]: 195 µM (≈ 86.3 µg/mL)
- solubility [2]: 197 µM (≈ 87.1 µg/mL)
- solubility [3]: 162 µM (≈ 71.6 µg/mL)
- CLint scaled [6]: < 115 mL/min/kg
- half-life [4]: 0.1 h
- half-life [5]: > 1 h
